Numbered stars: 1 amine (or outer) side, 2 acyl side, 3 side chain; on linkers, the order of the positions; unused ones are H or OH. Side chains are listed from the residue outwards. Peptide text beside a SMILES is read from it. * marks the point of attachment. C18 diacid = O=C(O)CCCCCCCCCCCCCCCCC(=O)*; γGlu = O=C(O)[C@H](CCC(=O)[*:2])N[*:1]; AEEA = NCCOCCOCC(=O)O

The results in this text go back to patent US20150141336A1, “Pancreatic Peptide Compounds and Use” (Novo Nordisk A/S, priority 2012, published 2015).

A short description of this data set: Assay (II) PK i.v. minipig, in vivo half-life. More on the design: species or system Göttingen mini-pigs. Conditions: male, Göttingen, minipig, iv, Half-life minipig, Assay (II). The method, boiled down: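 Male Göttingen mini-pigs (18–22 kg, n=5) received 6 nmol/kg i.v. via central catheter, formulated in 50 mM K2HPO4, 0.05% tween 80, pH 8.0. EDTA plasma sampled pre-dose to 240 h, quantified by TFC/LC/MS/MS (MRM, range 1-2000 nmol/l); half-life from non-compartmental analysis per animal.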
What is called half-life is how long it takes for the measured level to halve. Take `CC[C@H](C)[C@H](NC(=O)[C@H](Cc1ccc(O)cc1)NC(=O)[C@H](CCCCNC(=O)COCCOCCNC(=O)COCCOCCNC(=O)CC[C@H](NC(=O)CCCCCCCCCCCCCCCCC(=O)O)C(=O)O)NC(=O)[C@H](CCCNC(=N)N)NC(=O)[C@H](CC(C)C)NC(=O)[C@H](CC(=O)O)NC(=O)[C@H](C)NC(=O)[C@H](C)NC(=O)[C@H](Cc1ccc(O)cc1)NC(=O)[C@H](CCC(N)=O)NC(=O)[C@H](C)NC(=O)[C@H](CCSC)NC(=O)[C@H](CCC(N)=O)NC(=O)[C@H](CCC(=O)O)NC(=O)[C@@H]1CCCN1C(=O)[C@@H](NC(=O)[C@H](C)NC(=O)[C@H](CC(N)=O)NC(=O)[C@H](CC(=O)O)NC(=O)CNC(=O)[C@@H]1CCCN1C(=O)[C@H](Cc1ccc(O)cc1)NC(=O)[C@@H](NC(=O)[C@@H]1CCCN1C(=O)[C@H](CCC(=O)O)NC(=O)[C@H](CC(C)C)NC(=O)[C@@H]1CCCN1)C(C)C)[C@@H](C)O)C(=O)N[C@@H](CC(N)=O)C(=O)N[C@@H](CCSC)C(=O)N[C@@H](CC(C)C)C(=O)N[C@H](C(=O)N[C@@H](CCCNC(=N)N)C(=O)N1CCC[C@H]1C(=O)N[C@@H](CCCNC(=N)N)C(=O)N[C@@H](Cc1ccc(O)cc1)C(N)=O)[C@@H](C)O` [Compound H]: the half-life was 62 h. Take `CC[C@H](C)[C@H](NC(=O)[C@H](Cc1ccc(O)cc1)NC(=O)[C@H](CCCNC(=N)N)NC(=O)[C@H](CCCCNC(=O)COCCOCCNC(=O)COCCOCCNC(=O)CC[C@H](NC(=O)CCCCCCCCCCCCCCCCC(=O)O)C(=O)O)NC(=O)[C@H](CC(C)C)NC(=O)[C@H](CC(=O)O)NC(=O)[C@H](C)NC(=O)[C@H](C)NC(=O)[C@H](Cc1ccc(O)cc1)NC(=O)[C@H](CCC(N)=O)NC(=O)[C@H](C)NC(=O)[C@H](CCSC)NC(=O)[C@H](CCC(N)=O)NC(=O)[C@H](CCC(=O)O)NC(=O)[C@@H]1CCCN1C(=O)[C@@H](NC(=O)[C@H](C)NC(=O)[C@H](CC(N)=O)NC(=O)[C@H](CC(=O)O)NC(=O)CNC(=O)[C@@H]1CCCN1C(=O)[C@H](Cc1ccc(O)cc1)NC(=O)[C@@H](NC(=O)[C@@H]1CCCN1C(=O)[C@H](CCC(=O)O)NC(=O)[C@H](CC(C)C)NC(=O)[C@@H]1CCCN1)C(C)C)[C@@H](C)O)C(=O)N[C@@H](CC(N)=O)C(=O)N[C@@H](CCSC)C(=O)N[C@@H](CC(C)C)C(=O)N[C@H](C(=O)N[C@@H](CCCNC(=N)N)C(=O)N1CCC[C@H]1C(=O)N[C@@H](CCCNC(=N)N)C(=O)N[C@@H](Cc1ccc(O)cc1)C(N)=O)[C@@H](C)O` [Compound I] (H-PLEPVYPGDNATPEQMAQYAADLK([AEEA-AEEA-γGlu-C18 diacid])RYINMLTRPRY-NH2; N-terminus and C-terminus assumed): the half-life is 88 h. In the case of `CC[C@H](C)[C@H](NC(=O)[C@H](Cc1ccc(O)cc1)NC(=O)[C@H](CCCNC(=N)N)NC(=O)[C@H](CCCNC(=N)N)NC(=O)[C@H](CCCCNC(=O)COCCOCCNC(=O)COCCOCCNC(=O)CC[C@H](NC(=O)CCCCCCCCCCCCCCCCC(=O)O)C(=O)O)NC(=O)[C@H](CC(=O)O)NC(=O)[C@H](C)NC(=O)[C@H](C)NC(=O)[C@H](Cc1ccc(O)cc1)NC(=O)[C@H](CCC(N)=O)NC(=O)[C@H](C)NC(=O)[C@H](CCSC)NC(=O)[C@H](CCC(N)=O)NC(=O)[C@H](CCC(=O)O)NC(=O)[C@@H]1CCCN1C(=O)[C@@H](NC(=O)[C@H](C)NC(=O)[C@H](CC(N)=O)NC(=O)[C@H](CC(=O)O)NC(=O)CNC(=O)[C@@H]1CCCN1C(=O)[C@H](Cc1ccc(O)cc1)NC(=O)[C@@H](NC(=O)[C@@H]1CCCN1C(=O)[C@H](CCC(=O)O)NC(=O)[C@H](CC(C)C)NC(=O)[C@@H]1CCCN1)C(C)C)[C@@H](C)O)C(=O)N[C@@H](CC(N)=O)C(=O)N[C@@H](CCSC)C(=O)N[C@@H](CC(C)C)C(=O)N[C@H](C(=O)N[C@@H](CCCNC(=N)N)C(=O)N1CCC[C@H]1C(=O)N[C@@H](CCCNC(=N)N)C(=O)N[C@@H](Cc1ccc(O)cc1)C(N)=O)[C@@H](C)O` [Compound J] (H-PLEPVYPGDNATPEQMAQYAADK([AEEA-AEEA-γGlu-C18 diacid])RRYINMLTRPRY-NH2; N-terminus and C-terminus assumed), the half-life was 44 h. On to `CC[C@H](C)[C@H](NC(=O)[C@H](Cc1ccc(O)cc1)NC(=O)[C@H](CCCNC(=N)N)NC(=O)[C@H](CCCNC(=N)N)NC(=O)[C@H](CC(C)C)NC(=O)[C@H](CCCCNC(=O)COCCOCCNC(=O)COCCOCCNC(=O)CC[C@H](NC(=O)CCCCCCCCCCCCCCCCC(=O)O)C(=O)O)NC(=O)[C@H](C)NC(=O)[C@H](C)NC(=O)[C@H](Cc1ccc(O)cc1)NC(=O)[C@H](CCC(N)=O)NC(=O)[C@H](C)NC(=O)[C@H](CCSC)NC(=O)[C@H](CCC(N)=O)NC(=O)[C@H](CCC(=O)O)NC(=O)[C@@H]1CCCN1C(=O)[C@@H](NC(=O)[C@H](C)NC(=O)[C@H](CC(N)=O)NC(=O)[C@H](CC(=O)O)NC(=O)CNC(=O)[C@@H]1CCCN1C(=O)[C@H](Cc1ccc(O)cc1)NC(=O)[C@@H](NC(=O)[C@@H]1CCCN1C(=O)[C@H](CCC(=O)O)NC(=O)[C@H](CC(C)C)NC(=O)[C@@H]1CCCN1)C(C)C)[C@@H](C)O)C(=O)N[C@@H](CC(N)=O)C(=O)N[C@@H](CCSC)C(=O)N[C@@H](CC(C)C)C(=O)N[C@H](C(=O)N[C@@H](CCCNC(=N)N)C(=O)N1CCC[C@H]1C(=O)N[C@@H](CCCNC(=N)N)C(=O)N[C@@H](Cc1ccc(O)cc1)C(N)=O)[C@@H](C)O` [Compound K] (H-PLEPVYPGDNATPEQMAQYAAK([AEEA-AEEA-γGlu-C18 diacid])LRRYINMLTRPRY-NH2; N-terminus and C-terminus assumed), for which the half-life is 30 h. With `CC[C@H](C)[C@H](NC(=O)[C@H](Cc1ccc(O)cc1)NC(=O)[C@H](CCCNC(=N)N)NC(=O)[C@H](CCCNC(=N)N)NC(=O)[C@H](CC(C)C)NC(=O)[C@H](CC(=O)O)NC(=O)[C@H](CCCCNC(=O)COCCOCCNC(=O)COCCOCCNC(=O)CC[C@H](NC(=O)CCCCCCCCCCCCCCCCC(=O)O)C(=O)O)NC(=O)[C@H](C)NC(=O)[C@H](Cc1ccc(O)cc1)NC(=O)[C@H](CCC(N)=O)NC(=O)[C@H](C)NC(=O)[C@H](CCSC)NC(=O)[C@H](CCC(N)=O)NC(=O)[C@H](CCC(=O)O)NC(=O)[C@@H]1CCCN1C(=O)[C@@H](NC(=O)[C@H](C)NC(=O)[C@H](CC(N)=O)NC(=O)[C@H](CC(=O)O)NC(=O)CNC(=O)[C@@H]1CCCN1C(=O)[C@H](Cc1ccc(O)cc1)NC(=O)[C@@H](NC(=O)[C@@H]1CCCN1C(=O)[C@H](CCC(=O)O)NC(=O)[C@H](CC(C)C)NC(=O)[C@@H]1CCCN1)C(C)C)[C@@H](C)O)C(=O)N[C@@H](CC(N)=O)C(=O)N[C@@H](CCSC)C(=O)N[C@@H](CC(C)C)C(=O)N[C@H](C(=O)N[C@@H](CCCNC(=N)N)C(=O)N1CCC[C@H]1C(=O)N[C@@H](CCCNC(=N)N)C(=O)N[C@@H](Cc1ccc(O)cc1)C(N)=O)[C@@H](C)O` [Compound L] (H-PLEPVYPGDNATPEQMAQYAK([AEEA-AEEA-γGlu-C18 diacid])DLRRYINMLTRPRY-NH2; N-terminus and C-terminus assumed), the half-life was 83 h. With `CC[C@H](C)[C@H](NC(=O)[C@H](Cc1ccc(O)cc1)NC(=O)[C@H](CCCNC(=N)N)NC(=O)[C@H](CCCNC(=N)N)NC(=O)[C@H](CC(C)C)NC(=O)[C@H](CC(=O)O)NC(=O)[C@H](C)NC(=O)[C@H](CCCCNC(=O)COCCOCCNC(=O)COCCOCCNC(=O)CC[C@H](NC(=O)CCCCCCCCCCCCCCCCC(=O)O)C(=O)O)NC(=O)[C@H](Cc1ccc(O)cc1)NC(=O)[C@H](CCC(N)=O)NC(=O)[C@H](C)NC(=O)[C@H](CCSC)NC(=O)[C@H](CCC(N)=O)NC(=O)[C@H](CCC(=O)O)NC(=O)[C@@H]1CCCN1C(=O)[C@@H](NC(=O)[C@H](C)NC(=O)[C@H](CC(N)=O)NC(=O)[C@H](CC(=O)O)NC(=O)CNC(=O)[C@@H]1CCCN1C(=O)[C@H](Cc1ccc(O)cc1)NC(=O)[C@@H](NC(=O)[C@@H]1CCCN1C(=O)[C@H](CCC(=O)O)NC(=O)[C@H](CC(C)C)NC(=O)[C@@H]1CCCN1)C(C)C)[C@@H](C)O)C(=O)N[C@@H](CC(N)=O)C(=O)N[C@@H](CCSC)C(=O)N[C@@H](CC(C)C)C(=O)N[C@H](C(=O)N[C@@H](CCCNC(=N)N)C(=O)N1CCC[C@H]1C(=O)N[C@@H](CCCNC(=N)N)C(=O)N[C@@H](Cc1ccc(O)cc1)C(N)=O)[C@@H](C)O` [Compound M] (H-PLEPVYPGDNATPEQMAQYK([AEEA-AEEA-γGlu-C18 diacid])ADLRRYINMLTRPRY-NH2; N-terminus and C-terminus assumed) the figure was 77 h; with `CC[C@H](C)[C@H](NC(=O)[C@H](Cc1ccc(O)cc1)NC(=O)[C@H](CCCNC(=N)N)NC(=O)[C@H](CCCNC(=N)N)NC(=O)[C@H](CC(C)C)NC(=O)[C@H](CC(=O)O)NC(=O)[C@H](C)NC(=O)[C@H](C)NC(=O)[C@H](CCCCNC(=O)COCCOCCNC(=O)COCCOCCNC(=O)CC[C@H](NC(=O)CCCCCCCCCCCCCCCCC(=O)O)C(=O)O)NC(=O)[C@H](CCC(N)=O)NC(=O)[C@H](C)NC(=O)[C@H](CCSC)NC(=O)[C@H](CCC(N)=O)NC(=O)[C@H](CCC(=O)O)NC(=O)[C@@H]1CCCN1C(=O)[C@@H](NC(=O)[C@H](C)NC(=O)[C@H](CC(N)=O)NC(=O)[C@H](CC(=O)O)NC(=O)CNC(=O)[C@@H]1CCCN1C(=O)[C@H](Cc1ccc(O)cc1)NC(=O)[C@@H](NC(=O)[C@@H]1CCCN1C(=O)[C@H](CCC(=O)O)NC(=O)[C@H](CC(C)C)NC(=O)[C@@H]1CCCN1)C(C)C)[C@@H](C)O)C(=O)N[C@@H](CC(N)=O)C(=O)N[C@@H](CCSC)C(=O)N[C@@H](CC(C)C)C(=O)N[C@H](C(=O)N[C@@H](CCCNC(=N)N)C(=O)N1CCC[C@H]1C(=O)N[C@@H](CCCNC(=N)N)C(=O)N[C@@H](Cc1ccc(O)cc1)C(N)=O)[C@@H](C)O` [Compound N] (H-PLEPVYPGDNATPEQMAQK([AEEA-AEEA-γGlu-C18 diacid])AADLRRYINMLTRPRY-NH2; N-terminus and C-terminus assumed), 44 h.
